Measurements taken from patent US9481687B2, “IRAK inhibitors and uses thereof” (Nimbus Iris, Inc., priority 2012, dated 2016).
Counter-ions that a name gives are not always drawn.

What was measured:
[1] = system: THP-1 cells; assay: LPS-induced cytokine production assay, IL8; assay type: cell-based; settings: Homo sapiens, 300 ng/mL LPS, 16 hours, read-out: IL-8 (16 h)
Experimental: (§1) Provided compounds were also assayed in an LPS (Lipopolysacharide) or R848 (TLR-7 agonist) induced cytokine (e.g. TNFα and IL8) production assay in THP-1 cells, human peripheral blood mononuclear cells (hPBMC), and whole blood. The exemplary protocol for this assay in THP-1 cells was as follows below.
(§2) THP-1 cells from ATCC (TIB-202) were cultured in RPMI Medium 1640 (Invitrogen, Cat No. A10491-01), 10% fetal bovine serum (Invitrogen, Cat No. 10099141, Lot No. 8172882) containing 100 U/mL Penicillin, 100 μg/mL streptomycin (Invitrogen, Cat No. 15140-122), and 50 uM 2-Mercaptoethanol (Invitrogen, Cat No. 21985023). LPS-EK ultra pure (Invivogen, Cat No. tlrl-peklps) was used to induce IL8 and TNFα production, that is detected in the cell culture supernatant by IL8 HTRF kit (Cisbio, Cat No. 62IL8PEB) and TNFα HTRF kit (Cisbio, Cat No. 62TNFPEB), as per manufacturer instructions. Cells were cultured in 96 well assay plates at 100,000 cells per well, and compounds diluted in final 0.3% DMSO were pre-incubated with cells for 1 hour prior to stimulation with 300 ng/mL LPS. Cytokine production in cell supernatant was measured at 5 hours for TNFα and IL8 production, and for 16 hours for IL8 production and assessment of cell viability.

[2] = system: THP-1 cells; assay: LPS-induced cytokine production assay, TNFα; assay type: cell-based; settings: Homo sapiens, 300 ng/mL LPS, 5 hours, read-out: TNF (5 h)
Experimental: as §1, §2

[3] = target: T1, IRAK4 (Homo sapiens, UniProt Q9NWZ3); assay: IRAK-4 activity inhibition assay (Caliper); assay type: biochemical; settings: 3.5 nM IRAK4, 37 μM ATP, 1.5 μM Peptide 8
T1 construct: purchased CARNA Bioscience 09-145
T1 sequence (Q9NWZ3 1-460): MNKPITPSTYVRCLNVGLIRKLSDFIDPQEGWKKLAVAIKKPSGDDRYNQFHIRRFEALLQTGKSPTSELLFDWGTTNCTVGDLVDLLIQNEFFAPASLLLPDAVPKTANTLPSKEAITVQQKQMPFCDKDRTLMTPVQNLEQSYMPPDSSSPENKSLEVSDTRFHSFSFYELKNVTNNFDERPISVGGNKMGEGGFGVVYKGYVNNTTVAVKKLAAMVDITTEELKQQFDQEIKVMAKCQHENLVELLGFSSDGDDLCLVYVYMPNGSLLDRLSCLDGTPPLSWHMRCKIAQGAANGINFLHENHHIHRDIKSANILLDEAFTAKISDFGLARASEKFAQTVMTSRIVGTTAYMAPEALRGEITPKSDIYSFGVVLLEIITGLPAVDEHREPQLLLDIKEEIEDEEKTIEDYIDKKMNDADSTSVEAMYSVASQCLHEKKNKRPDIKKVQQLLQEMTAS
Experimental: A 1× kinase base buffer was prepared from 50 mM HEPES, pH 7.5 and 0.0015% Brij-35. A stop buffer was prepared from 100 mM HEPES, pH 7.5, 0.015% Brij-35, 0.2% Coating Reagent #3, and 50 mM EDTA.
Test compound was diluted to 50× of the final desired highest inhibitor concentration in reaction by 100% DMSO. 100 ul of this compound dilution was transferred to a well in a 96-well plate.
Test compound was serially diluted by transferring 30 μl to 60 μl of 100% DMSO in the next well and so forth for a total of 10 concentrations. 100 μl of 100% DMSO was added to two empty wells for no compound control and no enzyme control in the same 96-well plate.
A new 96-well plate was marked as intermediate plate. 5 μl of compound serial dilution was transferred from source plate to the corresponding wells of the intermediate plate. 45 μl of 1× kinase base buffer (KB buffer) was added to each well of the intermediate plate. The intermediate plate was placed for 10 min on a shaker.
5 μl of each well was transferred from the 96-well intermediate plate to a 384-well plate in duplicates. For example, A1 of the 96-well plate is transferred to A1 and A2 of the 384-well plate. A2 of the 96-well plate is transferred to A3 and A4 of the 384-well plate, and so on.
IRAK4 and DTT in 1× kinase base buffer was added. The 2.5× enzyme mix contained 8.8 nM IRAK4 and 5 mM DTT.
Peptide 8, ATP, MgCl2 and MnCl2 were added in the 1× kinase base buffer. The 2.5× peptide mix contained 3.75 μM peptide 8, 92.5 μM ATP, 12.5 mM MgCl2 and 2.5 mM MnCl2.
Assay plate already contained 5 μl of compound in 10% DMSO. Added 10 μl of 2.5× enzyme solution to each well of the 384-well assay plate, except no enzyme control wells. The final concentration of IRAK4 in reaction was 3.5 nM. Added 10 μl of 1× kinase base buffer to no enzyme control wells in the assay plate. Incubated at room temperature for 10 min.
Added 10 μl of 2.5× peptide solution to each well of the 384-well assay plate. The final concentration of Peptide 8 and ATP was 1.5 μM and 37 μM, respectively. Incubated at 28° C. for 40 minutes. Added 25 μl of stop buffer to stop reaction. Collected data on Caliper.
Copied conversion % data from Caliper program. Converted conversion % values to percent inhibition values. Percent inhibition=(max−conversion %)/(max−min)*100, where “max” means the conversion % of DMSO control and “min” means the conversion % of no enzyme control.

Row | Compound | IC50 [1] [nM] | IC50 [2] [nM] | IC50 [3] [nM]
1 | CN(CC(=O)N1CCCC1)[C@H]1CC[C@H](Nc2ncnc3sc4ccccc4c23)CC1 [I-3, 2-(((1r,4r)-4-(benzo[4,5]thieno[2,3-d]pyrimidin-4-ylamino)cyclohexyl)(methyl)amino)-1-(pyrrolidin-1-yl)ethanone] | ≤ 1000 | ≥ 1000 | ≤ 100
2 | CN(C)C(=O)c1ccc2sc3ncnc(N[C@H]4CC[C@H](N(C)C)CC4)c3c2c1 [I-19, 4-(((1r,4r)-4-(dimethylamino)cyclohexyl)amino)-N,N-dimethylbenzo[4,5]thieno[2,3-d]pyrimidine-6-carboxamide] |  |  | 1000 to 10000
3 | NC(=O)Cc1ccc2sc3ncnc(N[C@H]4CC[C@H](N5CCOCC5)CC4)c3c2c1 [I-18, 2-(4-(((1r,4r)-4-morpholinocyclohexyl)amino)benzo[4,5]thieno[2,3-d]pyrimidin-6-yl)acetamide] |  |  | 1000 to 10000
4 | c1ccc2c(c1)sc1ncnc(O[C@H]3CC[C@H](N4CCOCC4)CC3)c12 [I-16, 4-((1r,4r)-4-(benzo[4,5]thieno[2,3-d]pyrimidin-4-yloxy)cyclohexyl)morpholine] |  |  | 100 to 1000
5 | CNC(=O)c1ccc2sc3ncnc(N[C@H]4CC[C@H](N(C)C)CC4)c3c2c1 [I-14, 4-(((1r,4r)-4-(dimethylamino)cyclohexyl)amino)-N-methylbenzo[4,5]thieno[2,3-d]pyrimidine-6-carboxamide] |  |  | 100 to 1000
6 | OCCc1ccc2sc3ncnc(N[C@H]4CC[C@H](N5CCOCC5)CC4)c3c2c1 [I-15, 2-(4-(((1r,4r)-4-morpholinocyclohexyl)amino)benzo[4,5]thieno[2,3-d]pyrimidin-6-yl)ethanol] |  |  | 100 to 1000
7 | OCCc1ccc2sc3ncnc(O[C@H]4CC[C@H](N5CCOCC5)CC4)c3c2c1 [I-13, 2-(4-(((1r,4r)-4-morpholinocyclohexyl)oxy)benzo[4,5]thieno[2,3-d]pyrimidin-6-yl)ethanol] |  |  | 100 to 1000
8 | OCc1ccc2sc3ncnc(N[C@H]4CC[C@H](N5CCOCC5)CC4)c3c2c1 [I-10, (4-(((1r,4r)-4-morpholinocyclohexyl)amino)benzo[4,5]thieno[2,3-d]pyrimidin-6-yl)methanol] |  |  | 100 to 1000
9 | CCNC(=O)c1ccc2sc3ncnc(N[C@H]4CC[C@H](N(C)C)CC4)c3c2c1 [I-17, 4-(((1r,4r)-4-(dimethylamino)cyclohexyl)amino)-N-ethylbenzo[4,5]thieno[2,3-d]pyrimidine-6-carboxamide] |  |  | 100 to 1000
10 | CN(C)[C@H]1CC[C@H](Nc2ncnc3sc4ccc(C(N)=O)cc4c23)CC1 [I-6, 4-(((1r,4r)-4-(dimethylamino)cyclohexyl)amino)benzo[4,5]thieno[2,3-d]pyrimidine-6-carboxamide] | ≤ 1000 | ≥ 1000 | ≤ 100
11 | CCOC(=O)c1ccc2sc3ncnc(N[C@H]4CC[C@H](N5CCOCC5)CC4)c3c2c1 [I-8, Ethyl 4-(((1r,4r)-4-morpholinocyclohexyl)amino)benzo[4,5]thieno[2,3-d]pyrimidine-6-carboxylate] |  |  | 100 to 1000
12 | CN(C)C(=O)c1ccc2sc3ncnc(N[C@H]4CC[C@H](N5CCOCC5)CC4)c3c2c1 [I-20, N,N-dimethyl-4-(((1r,4r)-4-morpholinocyclohexyl)amino)benzo[4,5]thieno[2,3-d]pyrimidine-6-carboxamide] |  |  | 1000 to 10000
13 | CCOC(=O)c1cccc2sc3ncnc(N[C@H]4CC[C@H](N(C)C)CC4)c3c12 [I-22, ethyl 4-(((1r,4r)-4-(dimethylamino)cyclohexyl)amino)benzo[4,5]thieno[2,3-d]pyrimidine-5-carboxylate] |  |  | ≥ 10000
14 | CN(C)[C@H]1CC[C@H](Nc2ncnc3sc4ccc(CO)cc4c23)CC1 [I-7, (4-(((1r,4r)-4-(dimethylamino)cyclohexyl)amino)benzo[4,5]thieno[2,3-d]pyrimidin-6-yl)methanol] | ≤ 1000 | ≥ 1000 | 100 to 1000
15 | CN[C@H]1CC[C@H](Nc2ncnc3sc4ccccc4c23)CC1 [I-9, (1r,4r)-N1-(benzo[4,5]thieno[2,3-d]pyrimidin-4-yl)-N4-methylcyclohexane-1,4-diamine] | ≤ 1000 | ≥ 1000 | 100 to 1000
16 | CCOC(=O)c1ccc2sc3ncnc(N[C@H]4CC[C@H](N(C)C)CC4)c3c2c1 [I-5, ethyl 4-(((1r,4r)-4-(dimethylamino)cyclohexyl)amino)benzo[4,5]thieno[2,3-d]pyrimidine-6-carboxylate] | ≤ 1000 | ≤ 1000 | ≤ 100
17 | c1ccc2c(c1)sc1ncnc(N[C@H]3CC[C@H](N4CCOCC4)CC3)c12 [I-4, N-((1r,4r)-4-morpholinocyclohexyl)benzo[4,5]thieno[2,3-d]pyrimidin-4-amine] | ≤ 1000 | ≤ 1000 | ≤ 100
18 | N[C@H]1CC[C@H](Nc2ncnc3sc4ccccc4c23)CC1 [I-11, (1r,4r)-N1-(benzo[4,5]thieno[2,3-d]pyrimidin-4-yl)cyclohexane-1,4-diamine hydrochloride] |  |  | 100 to 1000
19 | CN(C)[C@H]1CC[C@H](Oc2ncnc3sc4ccccc4c23)CC1 [I-12, (1r,4r)-4-(benzo[4,5]thieno[2,3-d]pyrimidin-4-yloxy)-N,N-dimethylcyclohexanamine] |  |  | 100 to 1000
20 | CN(C)[C@H]1CC[C@H](Nc2ncnc3sc4cccc(CO)c4c23)CC1 [I-23, (4-(((1r,4r)-4-(dimethylamino)cyclohexyl)amino)benzo[4,5]thieno[2,3-d]pyrimidin-5-yl)methanol] |  |  | ≥ 10000
21 | CN(C)[C@H]1CC[C@H](Nc2ncnc3sc4ccccc4c23)CC1 [I-2, (1r,4r)-N1-(benzo[4,5]thieno[2,3-d]pyrimidin-4-yl)-N4,N4-dimethylcyclohexane-1,4-diamine] | ≤ 1000 | ≤ 1000 | ≤ 100
22 | NC(=O)c1ccc2sc3ncnc(N[C@H]4CC[C@H](N5CCOCC5)CC4)c3c2c1 [I-1, 4-(((1r,4r)-4-morpholinocyclohexyl)amino)benzo[4,5]thieno[2,3-d]pyrimidine-6-carboxamide] | ≤ 1000 | ≤ 1000 | ≤ 100
23 | CCOC(=O)Cc1ccc2sc3ncnc(N[C@H]4CC[C@H](N5CCOCC5)CC4)c3c2c1 [I-21, Ethyl 2-(4-(((1r,4r)-4-morpholinocyclohexyl)amino)benzo[4,5]thieno[2,3-d]pyrimidin-6-yl)acetate] |  |  | 1000 to 10000
